Test results taken from patent US9334267B2, “RAF inhibitor compounds” (Deciphera Pharmaceuticals, LLC, priority 2012, dated 2016).

Assays:
[1] = target: T1, human B-Raf V600E (Homo sapiens, UniProt P15056, V600E); assay: Enzymatic assay of B-Raf V600E kinase activity (Raf/MEK1 ATPase, coupled PK/LDH, A340); format: biochemical; details: read-out: Enzyme IC50, nM B-Raf V600E
T1 construct: B-RafV600E (residues 433-726 containing V600E mutation) containing an N-terminal purification tag is expressed and purified; made in house
Procedure: Test compounds are evaluated for their inhibitory activities against one or more of human wild type B-Raf, human wild type C-Raf, human B-Raf V600E, human B-Raf V600E+T529I or human B-Raf V600E+G468A. T529I is a threonine to isoleucine B-Raf gatekeeper mutation and G468A is a B-Raf secondary mutation at G1403C in exon 11. The enzymatic assays of B-Raf, C-Raf and B-Raf mutations evaluate a property of Raf and MEK1 complex, which in the presence of ATP, catalyzes an enhanced ATP hydrolysis (Rominger, et al, Arch. Biochem. Biophys. 2007, 464: 130-137; US Patent Publication No. 2006/0211073). The ADP formed is monitored by the well-known coupled PK/LDH (pyruvate kinase/lactate dehydrogenase) system in the form of NADH oxidation, which can be monitored and detected spectrophotometrically by absorbance at 340 nm (A340; for principal of the method see Schindler et al, Science, 2000, 289: 1938-1942). Raf activated MEK1 ATPase activity is a property shared by all forms of Raf proteins.
B-RafV600E (residues 433-726 containing V600E mutation) containing an N-terminal purification tag is expressed and purified essentially as described previously (Wan et al, Cell, 2004, 116, 855-867).
Test compounds are evaluated for their inhibitory activities against one or more of wild type B-Raf, wild type C-Raf, B-Raf V600E, B-Raf V600E+T529I and B-Raf V600E+G468A. T529I is a B-Raf gatekeeper mutation and G468A is a B-Raf secondary mutation. The enzymatic assays of B-Raf, C-Raf and B-Raf mutations evaluate a property of Raf and MEK1 complex, which in the presence of ATP, catalyzes an enhanced ATP hydrolysis (Rominger, et al, Arch. Biochem. Biophys. 2007, 464: 130-137). The ADP formed is monitored by the well-known coupled PK/LDH (pyruvate kinase/lactate dehydrogenase) system in the form of NADH oxidation, which can be monitored and detected by absorbance at 340 nm (A340; for principal of the method see Schindler et al, Science, 2000, 289: 1938-1942). Raf activated MEK1 ATPase activity is a property shared by all forms of Raf proteins. In the B-Raf wild type enzymatic assay, the reaction mixture contains 1.2 nM B-Raf, 30 nM MEK1, 1000 uM ATP, 3.5 units (per 100 ul) of PK, 5 units (per 100 ul) of LDH, 1 mM phosphoenol pyruvate (PEP), and 280 uM of NADH. In the C-Raf assay, the reaction mixture contains 0.6 nM C-Raf, 26 nM MEK1, 2000 uM ATP, and the same amount of PK, LDH, PEP and NADH as above. In the B-Raf V600E assay, the reaction mixture contains […] B-Raf V600E, 26 nM MEK1, 200 uM ATP and the same amount of PK, LDH, PEP and NADH as above. In the B-RafV600E+T529I assay, the reaction mixture contains 6.2 nM B-Raf V600E+T529I, 30 nM MEK1, 200 uM ATP and the same amount of PK, LDH, PEP and NADH as above. In the B-Raf V600E+G468A assay, the reaction mixture contains 3.5 nM B-Raf, 30 nM MEK1, 200 uM ATP and the same amount of PK, LDH, PEP and NADH as above. All assays are started by mixing the above mixture with test compound and monitoring at A340 continuously for approximately 5 hr. […] In the aforementioned assays, the enzyme constructs can be screened prior to or after cleavage of the N-terminal purification tag.

[2] = target: T2, human wild type c-KIT (Homo sapiens, UniProt P10721); assay: Enzymatic assay of c-Kit kinase activity (poly E4Y phosphorylation, coupled PK/LDH); format: biochemical
T2 construct: GST (N); made in house
Source text: c-Kit is an important oncogene, and its overexpression and genetic mutations often occur in melanoma and gastrointestinal stromal tumor (GIST) patients. In the c-Kit enzymatic assay, the phosphorylation of poly E4Y by ATP catalyzed by human c-Kit is monitored spectrophotometrically. The ADP produced from the kinase reaction is coupled to pyruvate kinase/lactate dehydrogenase (PK/LDH) reactions where NAD is formed from pyruvate and NADH. NADH can be detected by absorbance at 340 nm, as described above for enzymatic assays of kinase activities of B-Raf, C-Raf and B-Raf mutations.
The assay reaction mixture includes 6 nM human wild type c-KIT, 1 mg/mL Poly (Glu,Tyr) (Sigma), 1 mM Phosphoenol-pyruvate, 280 μM NADH, 5 U/3.5 U (per 100 ul) Pyruvate Kinase/Lactate Dehydrogenase, 85 mM Tris, pH 7.5, 17 mM MgCl2, 0.0042% Triton® X-100, 0.005% BSA, 1% DMSO. Test compound is incubated with the reaction mixture for 0.5 hour before adding 200 μM ATP to start the reaction at 30° C.

[3] = system: HT-29 cells; assay: HT-29 cell proliferation assay (resazurin); format: cell-based; details: Homo sapiens, V600E mutation, read-out: Cell Proliferation Inhibition IC50, nM HT-29
Procedure: HT-29 cells (catalog #HTB-38) are obtained from the American Type Culture Collection (ATCC, Manassas, Va.). Briefly, cells are grown in McCoy's 5A supplemented with 10% characterized fetal bovine serum (Invitrogen, Carlsbad, Calif.), and 1% Penicillin/Streptomycin/L-Glutamine at 37 degrees Celsius, 5% CO2, and 95% humidity. Cells are allowed to expand until reaching 75-90% confluency at which point they are subcultured or harvested for assay use. A serial dilution of test compound is dispensed into a 384-well black clear bottom plate in triplicate. One thousand two-hundred fifty cells are added per well in 50 μL complete growth medium in the 384-well plate. Plates are incubated for 67 hours at 37 degrees Celsius, 5% CO2, and 95% humidity. At the end of the incubation period, 10 μL of a 440 μM solution of resazurin (Sigma, St. Louis, Mo.) in PBS is added to each well of the plate and plates are incubated for an additional 5 hours at 37 degrees Celsius, 5% CO2, and 95% humidity. Plates are read on a Synergy2 reader (Biotek, Winooski, Vt.) using an excitation of 540 nm and an emission of 600 nm. Data is analyzed using Prism software (Graphpad, San Diego, Calif.) to calculate IC50 values.
The A375, HT-29, and Colo-205 cells (ATCC) harbor a V600E mutation.

[4] = system: Sk-Mel-2 cells; assay: SK-Mel-2 cell proliferation assay (resazurin); format: cell-based; details: Homo sapiens, N-Ras mutation B-Raf wild type, read-out: Cell Proliferation Inhibition IC50, nM SK-Mel-2

T2 sequence (P10721 26-976): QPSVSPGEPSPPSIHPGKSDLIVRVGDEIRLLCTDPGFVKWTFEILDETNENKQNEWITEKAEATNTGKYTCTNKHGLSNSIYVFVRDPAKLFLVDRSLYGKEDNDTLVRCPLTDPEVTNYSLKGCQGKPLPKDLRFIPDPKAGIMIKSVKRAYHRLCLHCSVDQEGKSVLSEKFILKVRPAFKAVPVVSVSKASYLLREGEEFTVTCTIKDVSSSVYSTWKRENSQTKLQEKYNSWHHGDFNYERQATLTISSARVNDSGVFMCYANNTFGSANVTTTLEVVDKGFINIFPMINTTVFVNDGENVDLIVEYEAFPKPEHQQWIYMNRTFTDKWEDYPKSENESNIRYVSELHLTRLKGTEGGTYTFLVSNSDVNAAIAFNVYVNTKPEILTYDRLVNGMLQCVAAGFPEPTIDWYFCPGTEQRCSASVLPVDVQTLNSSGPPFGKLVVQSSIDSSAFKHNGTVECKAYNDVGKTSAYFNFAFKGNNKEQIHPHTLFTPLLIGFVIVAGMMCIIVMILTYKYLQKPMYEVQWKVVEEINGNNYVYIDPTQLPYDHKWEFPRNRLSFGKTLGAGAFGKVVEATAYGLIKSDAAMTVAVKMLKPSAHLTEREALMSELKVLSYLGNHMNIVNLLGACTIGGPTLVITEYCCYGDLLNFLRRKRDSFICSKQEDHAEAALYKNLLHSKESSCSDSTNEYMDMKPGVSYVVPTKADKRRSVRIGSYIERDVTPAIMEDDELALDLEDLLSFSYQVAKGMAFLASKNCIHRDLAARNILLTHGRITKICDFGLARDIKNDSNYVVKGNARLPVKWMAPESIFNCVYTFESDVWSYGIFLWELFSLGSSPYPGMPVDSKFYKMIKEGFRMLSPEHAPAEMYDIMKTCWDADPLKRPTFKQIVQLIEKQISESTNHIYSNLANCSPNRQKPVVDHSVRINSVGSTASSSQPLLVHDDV
T1 sequence (P15056 433-726 V600E): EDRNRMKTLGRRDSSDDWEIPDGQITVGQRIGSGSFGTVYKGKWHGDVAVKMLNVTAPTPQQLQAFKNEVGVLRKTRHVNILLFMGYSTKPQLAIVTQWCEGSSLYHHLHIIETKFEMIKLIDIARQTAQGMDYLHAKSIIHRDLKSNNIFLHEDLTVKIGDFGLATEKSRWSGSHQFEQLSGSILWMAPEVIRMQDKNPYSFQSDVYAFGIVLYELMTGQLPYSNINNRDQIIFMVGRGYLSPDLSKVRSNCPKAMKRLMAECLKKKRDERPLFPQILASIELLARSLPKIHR

| IC50 [1] | IC50 [2] | IC50 [3] | IC50 [4] | SMILES |
| --- | --- | --- | --- | --- |
| < 150 nM | < 150 nM | < 100 nM | 100 to 1000 nM | CCNc1ncc2cc(-c3cc(NC(=O)NCCC(C)(C)F)c(F)cc3C)c(C)nc2n1 [Example 26, 1-(5-(2-(Ethylamino)-7-methylpyrido[2,3-d]pyrimidin-6-yl)-2-fluoro-4-methylphenyl)-3-(3-fluoro-3-methylbutyl)urea] |
| < 150 nM | < 150 nM | < 100 nM | 100 to 1000 nM | Cc1cc(F)c(NC(=O)NCCC(C)(C)F)cc1-c1cc2cnc(NC3COC3)nc2nc1C [Example 25, 1-(3-Fluoro-3-methylbutyl)-3-(2-fluoro-4-methyl-5-(7-methyl-2-(oxetan-3-ylamino)pyrido[2,3-d]pyrimidin-6-yl)phenyl)urea] |
| < 150 nM | < 150 nM | < 100 nM | 100 to 1000 nM | COCCNc1ncc2cc(-c3cc(NC(=O)NC4CC(C)(C)C4)c(F)cc3C)c(C)nc2n1 [Example 31, 1-(3,3-Dimethylcyclobutyl)-3-(2-fluoro-5-(2-((2-methoxyethyl)amino)-7-methylpyrido[2,3-d]pyrimidin-6-yl)-4-methylphenyl)urea] |
| < 150 nM | < 150 nM | < 100 nM | < 100 nM | Cc1cc(F)c(NC(=O)NCCC(C)(C)C)cc1-c1cc2cnc(N)nc2nc1C [Example 20, 1-(5-(2-Amino-7-methylpyrido[2,3-d]pyrimidin-6-yl)-2-fluoro-4-methylphenyl)-3-(3,3-dimethylbutyl)urea] |
| < 150 nM | < 150 nM | < 100 nM | 100 to 1000 nM | CNc1ncc2cc(-c3cc(NC(=O)NCCC(C)(C)C)c(F)cc3Br)c(C)nc2n1 [Example 32, 1-(4-Bromo-2-fluoro-5-(7-methyl-2-(methylamino)pyrido[2,3-d]pyrimidin-6-yl)phenyl)-3-(3,3-dimethylbutyl)urea] |
| < 150 nM | < 150 nM | < 100 nM | 100 to 1000 nM | Cc1cc(F)c(NC(=O)NCCC(C)(C)C)cc1-c1cc2cnc(NCCO)nc2nc1C [Example 16, 1-(3,3-Dimethylbutyl)-3-[2-fluoro-5-[2-(2-hydroxyethylamino)-7-methyl-pyrido[2,3-d]pyrimidin-6-yl]-4-methyl-phenyl]urea] |
| < 150 nM | < 150 nM | < 100 nM | 100 to 1000 nM | CNc1ncc2cc(-c3cc(NC(=O)NCCC4(C(F)(F)F)CC4)c(F)cc3C)c(C)nc2n1 [Example 30, 1-(2-Fluoro-4-methyl-5-(7-methyl-2-(methylamino)pyrido[2,3-d]pyrimidin-6-yl)phenyl)-3-(2-(1-(trifluoromethyl)cyclopropyl)ethyl)urea] |
| < 150 nM | < 150 nM | < 100 nM | 100 to 1000 nM | CC(=O)Nc1ncc2cc(-c3cc(NC(=O)NCCC(C)(C)C)c(F)cc3C)c(C)nc2n1 [Example 33, N-(6-(5-(3-(3,3-Dimethylbutyl)ureido)-4-fluoro-2-methylphenyl)-7-methylpyrido[2,3-d]pyrimidin-2-yl)acetamide] |

More lines, now with the values behind:

| SMILES | IC50 [1] | IC50 [2] | IC50 [3] | IC50 [4] |
| --- | --- | --- | --- | --- |
| CNc1ncc2cc(-c3cc(NC(=O)NCCC(C)(C)F)c(F)cc3C)c(C)nc2n1 [Example 4, 1-(3-Fluoro-3-methylbutyl)-3-(2-fluoro-4-methyl-5-(7-methyl-2-(methylamino)pyrido[2,3-d]pyrimidin-6-yl)phenyl)urea] | < 150 nM | < 150 nM | < 100 nM | 100 to 1000 nM |
| CNc1ncc2cc(-c3cc(NC(=O)NCCC(C)(C)C)c(F)cc3F)c(C)nc2n1 [Example 1, 1-(2,4-Difluoro-5-(7-methyl-2-(methylamino)pyrido[2,3-d]pyrimidin-6-yl)phenyl)-3-(3,3-dimethylbutyl)urea] | < 150 nM | < 150 nM | < 100 nM | 100 to 1000 nM |
| CNc1ncc2cc(-c3cc(NC(=O)NCC4CC4(C)C)c(F)cc3C)cnc2n1 (stereo not drawn) [Example 9] | < 150 nM | < 150 nM | 100 to 1000 nM | 100 to 1000 nM |
| CNc1ncc2cc(-c3cc(NC(=O)NCCC(C)(C)OC)c(F)cc3C)c(C)nc2n1 [Example 14, 1-(2-Fluoro-4-methyl-5-(7-methyl-2-(methylamino)pyrido[2,3-d]pyrimidin-6-yl)phenyl)-3-(3-methoxy-3-methylbutyl)urea] | < 150 nM | < 150 nM | < 100 nM | 1000 to 10000 nM |
| Cc1cc(F)c(NC(=O)NCC(O)C(C)(C)C)cc1-c1cc2cnc(N)nc2nc1C (stereo not drawn) [Example 10] | < 150 nM | < 150 nM | 100 to 1000 nM | 1000 to 10000 nM |
| CNc1ncc2cc(-c3cc(NC(=O)NCCC(C)(C)C#N)c(F)cc3F)c(C)nc2n1 [Example 12, 1-(3-Cyano-3-methylbutyl)-3-(2,4-difluoro-5-(7-methyl-2-(methylamino)pyrido[2,3-d]pyrimidin-6-yl)phenyl)urea] | < 150 nM | < 150 nM | 100 to 1000 nM | 100 to 1000 nM |
| CNc1ncc2cc(-c3cc(NC(=O)NCC(O)C(C)(C)C)c(F)cc3C)cnc2n1 (stereo not drawn) [Example 8, 1-[2-Fluoro-4-methyl-5-(2-methylaminopyrido[2,3-d]pyrimidin-6-yl)phenyl]-3-(2-hydroxy-3,3-dimethyl-butyl)urea] | < 150 nM | < 150 nM | 100 to 1000 nM | 100 to 1000 nM |
